Data: PubChem BioAssay (NCI)
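Step 1: Grow cells in 96-well plates. Step 2: Expose to compound for 48 hours at 5 concentrations. Step 3: Interpolate endpoints linearly; if unreached, use highest concentration. At the GI50, growth is halved. TGI denotes the concentration required for complete inhibition of growth.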

Assays:
Test in all cases: DTP human tumour cell line panel, 48 h; in the data active = GI50 below about 0.43 µM; inactive = the rest
[1] = tested on: A498 renal
[2] = tested on: MALME-3M melanoma
[3] = tested on: SN12C renal
[4] = tested on: 786-0 renal
[5] = tested on: ACHN renal
[6] = tested on: HOP-62 NSCLC
[7] = tested on: UACC-257 melanoma
[8] = tested on: MDA-MB-231 breast
[9] = tested on: SK-MEL-28 melanoma
[10] = tested on: NCI-H23 lung
[11] = tested on: M14 melanoma
[12] = tested on: MCF7 breast
[13] = tested on: SK-OV-3 ovarian
[14] = tested on: SR leukemia
[15] = tested on: EKVX NSCLC
[16] = tested on: RXF 393 renal
[17] = tested on: IGROV1 ovarian
[18] = tested on: OVCAR-4 ovarian
[19] = tested on: HL-60(TB) leukemia
[20] = tested on: SNB-19 CNS
[21] = tested on: LOX IMVI melanoma
[22] = tested on: OVCAR-3 ovarian
[23] = tested on: NCI-H460 lung
[24] = tested on: SK-MEL-5 melanoma
[25] = tested on: SF-295 CNS
[26] = tested on: KM12 colon
[27] = tested on: SK-MEL-2 melanoma
[28] = tested on: SF-268 CNS
[29] = tested on: UO-31 renal
[30] = tested on: NCI-H226 lung
[31] = tested on: SF-539 CNS
[32] = tested on: MDA-MB-435
[33] = tested on: OVCAR-8 ovarian
[34] = tested on: TK-10 renal
[35] = tested on: U251 CNS
[36] = tested on: DU-145 prostate
[37] = tested on: MDA-MB-468 breast
[38] = tested on: CCRF-CEM leukemia
[39] = tested on: UACC-62 melanoma
[40] = tested on: HT29 colon
[41] = tested on: NCI-H522 lung
[42] = tested on: BT-549 breast
[43] = tested on: RPMI-8226 leukemia
[44] = tested on: COLO 205 colon
[45] = tested on: MOLT-4 leukemia
[46] = tested on: A549 NSCLC
[47] = tested on: HCT-15 colon
[48] = tested on: PC-3 prostate
[49] = tested on: NCI/ADR-RES ovarian
[50] = tested on: HCT-116 colon
[51] = tested on: K-562 leukemia
[52] = tested on: CAKI-1 renal
[53] = tested on: HCC-2998 colon
[54] = tested on: HS 578T breast
[55] = tested on: SW-620 colon
[56] = tested on: OVCAR-5 ovarian

COc1cc(OC)cc(-c2cc3ccc(N(C)C)cc3c(=O)[nH]2)c1
> 63300 nM: TGI [4]
69 nM: TGI [37]
37800 nM: TGI [22]
47.3 nM: TGI [41]
43.4 nM: TGI [19]
52.9 nM: TGI [40]
> 100000 nM: TGI [1] | TGI [2] | TGI [3] | TGI [5] | TGI [6] | TGI [7] | TGI [9] | TGI [10] | TGI [12] | TGI [13] | TGI [14] | TGI [15] | TGI [16] | TGI [17] | TGI [18] | TGI [20] | TGI [21] | TGI [23] | TGI [26] | TGI [27] | TGI [28] | TGI [29] | TGI [30] | TGI [34] | TGI [36] | TGI [38] | TGI [39] | TGI [42] | TGI [43] | TGI [45] | TGI [46] | TGI [48] | TGI [50] | TGI [51] | TGI [52] | TGI [53] | TGI [54] | TGI [55] | TGI [56]
14.9 nM: TGI [32]
58.3 nM: TGI [44]
> 47000 nM: TGI [35]
42.6 nM: TGI [31]
active: GI50 [2] 24 nM | GI50 [3] 37.2 nM | GI50 [4] 45.1 nM | GI50 [5] 52.2 nM | GI50 [6] 38 nM | GI50 [8] 30.3 nM | GI50 [9] 42.2 nM | GI50 [10] 42.6 nM | GI50 [11] < 10.6 nM | GI50 [12] 33.1 nM | GI50 [13] 33.5 nM | GI50 [14] < 10 nM | GI50 [15] 58.8 nM | GI50 [16] 15.5 nM | GI50 [17] 44.6 nM | GI50 [19] < 11 nM | GI50 [20] 54.2 nM | GI50 [21] 19 nM | GI50 [22] 19.1 nM | GI50 [23] 34.1 nM | GI50 [24] 17.1 nM | GI50 [25] < 10.6 nM | GI50 [26] 31 nM | GI50 [27] 25.6 nM | GI50 [28] 354 nM | GI50 [29] 52.3 nM | GI50 [30] 219 nM | GI50 [31] 11.7 nM | GI50 [32] < 10 nM | GI50 [33] 29.8 nM | GI50 [35] 15.1 nM | GI50 [36] 45.6 nM | GI50 [37] 21.7 nM | GI50 [38] 39.6 nM | GI50 [39] < 10 nM | GI50 [40] 16.4 nM | GI50 [41] < 10 nM | GI50 [42] 38 nM | GI50 [43] 43.6 nM | GI50 [44] 22.3 nM | GI50 [45] 25.4 nM | GI50 [46] 39 nM | GI50 [47] < 11.6 nM | GI50 [48] 40 nM | GI50 [49] < 10 nM | GI50 [50] < 13.5 nM | GI50 [51] < 10 nM | GI50 [52] 14.5 nM | GI50 [53] 25.7 nM | GI50 [54] 25.2 nM | GI50 [55] < 10.6 nM | GI50 [56] 35.7 nM
> 48200 nM: TGI [11]
145 nM: TGI [24]
33.6 nM: TGI [49]
inactive: GI50 [1] > 100000 nM | GI50 [7] > 100000 nM | GI50 [18] 1670 nM | GI50 [34] > 100000 nM
3600 nM: TGI [8]
187 nM: TGI [33]
